In US9487551B2, “Small molecule compounds that control mammal-pathogenic nematodes” (California Institute of Technology, priority 2011, dated 2016):
Entries after “also recorded” stand apart in the source; their conditions may differ.

What was measured:
[1] = tested on: Several of the tested nematode species; assay: Retention assay; assay type: in vivo; conditions: 1 nM, 1 μM and 1 mM tested
Protocol: OP50 E. coli was grown on a standard 5 cm agar plate (made with standard Nematode Growth Medium). The bacterial lawn was 16 mm in diameter and was grown overnight at 20° C. before being used in trials. Two 4 mm spots (0.6 μL) were placed on opposite sides of the bacterial lawn (using a transparent template to guide spot placement), and several minutes elapsed for the liquid to settle in before placing nematodes down on the assay. Recording began immediately upon worm placement. 0.6 μL of the control was placed on one side of the lawn, and 0.6 μL of the experimental cue was placed on the other side of the lawn, changing the location of the cue throughout trials between left/right and top/bottom to avoid bias.
Nematodes were isolated by gender at the L4 stage the day before being used in trials as developed adults. Worms were evenly divided and placed at two points equidistant from the foci of the scoring region. Trials were recorded for 20 minutes, and frames were collected for analysis at 1 frame per second. Results were averaged from at least three different trials. For every nematode species in this study, a different total number of worms (using water in both scoring regions) was tested to determine the minimum number of worms necessary for consistent unbiased results over a 20 minute trial. The total number of worms used in the multiple species assays depended on that species' optimal parameters. 10 worms were used for P. redivivus males and females, 20 worms were used for C. elegans males and O. dolichuridae males, and 14 worms were used for S. glaseri males. The Automated Software was used to compare worm occupancy in each scoring region over time, and the Chemotaxis Index (Bargmann et al., Cell 74:515-27 (1993), which is hereby incorporated by reference in its entirety) was adapted to score preference or avoidance to each ascaroside.
A video camera attached to the microscope produced a digital video stream, which was then analyzed. The ratio of the time the average worm spent in each region of interest was calculated for every trial. For ease of implementation, all worms in a single experiment were assumed to be roughly the same size. Thus worm pixels were counted instead of whole worms, allowing fractions of a worm in the region of interest to be taken into account. It also eliminated the need for a shape-based worm identification algorithm, and allowed each frame to be analyzed independently. A band-pass filter was applied to each frame to eliminate the effect of uneven lighting and also accentuate the worms against the background. The worm was then identified after thresholding the filtered image. Throughout each experiment, the locations and sizes of the regions of interest were known. Through the filtering described above, it is known which pixels are occupied by worms and which ones are not. Thus, the ratio of worm-pixels to all pixels inside the region of interest can be calculated to produce the worm-occupancy ratio. This calculation was done for every frame, giving a plot output of worm-occupancy ratio vs. time for each region.

[2] = tested on: males; assay: Bioassay of HPLC-purified peak; assay type: in vivo; conditions: retention time 9.7 minutes
Protocol: A Thermo Finnigan LCQ Deca XP Max was used with electrospray ionization in positive ion mode in the 50-1000 AMU range. The Thermo Separation spectra HPLC system consisted of a P4000 quaternary pump, an AS 3000 auto sampler, and a UV 6000 diode array detector. The solvents were water with (a) 0.1% formic acid and (b) 90% acetonitrile-10% water with 10 mM ammonium formate. The column temperature was maintained at 60° C. and a solvent flow of 1.0 ml/min. The reversed phase column (PLRP-S Polymeric reversed phase column, 250×4.6 mmid, Varian Inc.) was eluted with a solvent composition starting with 90:10 (a,b) for 2 minutes, followed by a gradient to 5:95 in 20 minutes and an additional 5 minutes at 5:95. Ultraviolet absorption was monitored at 190 and 400 nm. Solvent flow between the ultraviolet detector and mass spectroscopy electrospray interface split 9:1 with a low-volume micro needle P450 splitter valve (Upchurch Scientific, Oak Harbor, Wash.), making it possible to obtain spectra of eluted compounds and simultaneously collect 90% of the injected material for bioassay. […] This was confirmed to be ascr#1 using NMR analysis.

[3] = tested on: C. elegans; assay: Ascaroside function (Table 12); assay type: in vivo, Caenorhabditis elegans; design: key to Attract Females/Herm. / Promote Dauer Formation / Attract Males: A very strong result of affecting nematode behavior is designated in the table as “strong.”; conditions: listed = has this function
Protocol: (§1) Various ascarosides and ascaroside blends were administered to various nematodes described below (Table 12). […] A very strong result of affecting nematode behavior is designated in the table as “strong.”

[4] = tested on: Panagrellus redivivus; assay: Ascaroside function (Table 12); assay type: in vivo; conditions: listed = has this function
Protocol: as §1

[5] = tested on: S. glaseri; assay: Ascaroside function (Table 12); assay type: in vivo; conditions: listed = has this function
Protocol: as §1

[6] = tested on: ASI sensory neurons; conditions: in vivo; cited from earlier work
[7] = tested on: C. elegans; assay: Spot attraction assay; assay type: in vivo
Protocol: The spot attraction assays were conducted according to a previously reported method (Pungaliya et al., PNAS 106:7708-13 (2009); Srinivasan et al., Nature 454:1115-18 (2008), which are hereby incorporated by reference in their entirety). For both C. elegans hermaphrodites and males, 50-60 worms were harvested daily at the fourth larval stage (L4) and stored segregatedly by sex at 20° C. overnight, to be used as young adults the following day. For the competition experiments, two conditions were used: 120 nM ascr#3 and 10 nM icas#3 (Condition 1), or 12 μM ascr#3 and 1 μM icas#3 (Condition 2) in water containing 10% ethanol. Aliquots were stored at −20° C. in 20 μL tubes. 10% ethanol in water was used as control.
Attraction assays with hbas#3 were conducted as previously reported (Srinivasan et al., Nature 454:1115-18 (2008); Pungaliya et al., Proc. Natl. Acad. Sci. U.S.A. 106:7708-13 (2009), which are hereby incorporated by reference in their entirety). For the attraction assays, 50-60 hermaphrodite worms were harvested daily at the early fourth larval stage (L4) and stored at 20° C. overnight to be used as young adults the following day. Hbas#3 was dissolved in water containing 10% ethanol. Aliquots were stored at −20° C. in 20 μL tubes. 10% ethanol in water was used as control.

[8] = tested on: C. elegans; assay: Quadrant chemotaxis assay; assay type: in vivo; conditions: for chemotaxis of hermaphrodites from all tested strains: 1 pM icas#3, except npr-1(ad609) for the blend
Protocol: Chemotaxis to both non-indole and indole ascarosides was assessed on 10 cm four-quadrant petri plates (Wicks et al., Dev. Biol. 221:295-307 (2000), which is hereby incorporated by reference in its entirety). Each quadrant was separated from adjacent ones by plastic spacers (FIG. 1B). Pairs of opposite quadrants were filled with nematode growth medium (NGM) agar containing either indole ascarosides or non-indole ascarosides at different concentrations. Animals were washed gently in a S-basal buffer, placed in the center of a four-quadrant plate with ascarosides in alternating quadrants, and scored after 15 minutes and 30 minutes. A chemotaxis index was calculated as: (the number of animals on ascaroside quadrants minus the number of animals on buffer quadrants)/(total number of animals).
Chemotaxis to hbas#3 was assessed on 10 cm four-quadrant petri plates (Wicks et al., Dev. Biol. 221:295-307 (2000), which is hereby incorporated by reference in its entirety). Each quadrant was separated from adjacent ones by plastic spacers. Pairs of opposite quadrants were filled with nematode growth medium (NGM) agar containing different concentrations of hbas#3. Animals were washed gently in an S-basal buffer and placed in the center of a four-quadrant plate with ascarosides in alternating quadrants, and scored after 15 minutes and 30 minutes. A chemotaxis index was calculated as: (the number of animals on ascaroside quadrants minus the number of animals on buffer quadrants)/(total number of animals).

[9] = tested on: C. elegans; assay: Aggregation assay; assay type: in vivo
Protocol: Aggregation behavior of worms was measured using assays reported in de Bono & Bargmann, Cell 94:679-89 (1998), which is hereby incorporated by reference in its entirety. Aggregation assays were conducted on standard NGM plates. Plates containing indole ascarosides were made by adding the indole ascaroside stock solution to the NGM media before they were poured onto the plates. These plates were dried at room temperature for 2 to 3 days. Control plates were treated similarly, except that ethanol solutions instead of icas solutions were added to the plates, corresponding to the amount of ethanol introduced via the icas solutions. Final ethanol concentrations of the plates were below 0.1% for all conditions. After drying, both control plates and plates containing indole ascarosides were seeded with 150 μl of an overnight culture of E. coli OP50 using a micropipette, and were allowed to dry for 2 days at room temperature. For “low worm density” experiments, 20 worms were placed onto the lawn and left at 20° C. for 3 hours. For “high worm density” experiments, approximately 120 worms were placed onto the bacterial lawn and left at 20° C. for 3 hours. Aggregation behavior was quantified as the number of animals that were in touch with two or more animals at greater than 50% of their body length.

[10] = tested on: C. elegans; assay: Measurement of locomotory parameters (automated worm-tracking); assay type: in vivo
Protocol: Reversal frequency and velocity were measured using an automated worm-tracking system (Pungaliya et al., PNAS 106:7708-13 (2009); Srinivasan et al., Nature 454:1115-18 (2008), which are hereby incorporated by reference in their entirety).

[11] = tested on: AIA interneurons; assay: Calcium imaging (G-CaMP); assay type: in vivo, C. elegans; conditions: 1 μM icas#3
Description: Transgenic lines that express the genetically encoded Ca^2+ sensor in ASK (kyEx2866) and AIA (kyEx2916) (Macosko et al., Nature 458:1171-75 (2009), which is hereby incorporated by reference in its entirety) were used for calcium imaging. Young adults or adult worms were inserted into an “Olfactory chip” microfluidic device (Chronis et al., Nat. Methods 4:727-31 (2007), which is hereby incorporated by reference in its entirety). Dilutions of icas#3 were done with S-basal buffer (with no cholesterol). As stock solutions of icas#3 contained small amounts of ethanol, equivalent amounts of ethanol were added to the S-basal control flow.
Imaging was conducted using an inverted Zeiss microscope equipped with an Andor camera. Exposure time for image acquisition was 300 milliseconds. Before imaging the ASK neuron, the worm was exposed to blue light for 3 minutes as ASK responds to the blue light itself. […] Movies were analyzed using custom-made Matlab scripts. The first peak of fluorescence immediately after exposure to buffer or icas#3 was chosen for calculating the average change in fluorescence upon exposure to either buffer or icas#3. The value for this maximum was then subtracted from the mean fluorescence during the 5 seconds before the delivery of icas#3/buffer (corresponding to the region between 5 to 10 seconds in FIG. 2D).

C[C@H](CCCCC(=O)O)O[C@@H]1O[C@@H](C)[C@H](O)C[C@H]1O [ascr#1]
preference for ascaroside-conditioned areas [1]: preferred areas conditioned | activity to males in the bioassay [2]: active to males | Attract Males [3]: ascr#l | Promote Dauer Formation [3]: ascr#1 | Attract Males [4]: ascr#1 | Attract Males [5]: ascr#1

C[C@@H]1O[C@@H](OCCC(=O)O)[C@H](O)C[C@H]1O [ascr#5]
Promote Dauer Formation [3]: ascr#5 ([strong]) | Repel Females/Herm. [3]: ascr#5 | calcium transients in the ASI sensory neurons [6]: does not elicit calcium transients

C[C@H](CCCC/C=C/C(=O)O)O[C@@H]1O[C@@H](C)[C@H](OC(=O)c2c[nH]c3ccccc23)C[C@H]1O [icas#3]
attraction in spot attraction assay ([7]; 1 pmol (high concentrations), N2 hermaphrodites and him-5 males): attractive to both C. elegans sexes; also recorded: attracted both males and hermaphrodites | attraction after ablation of ASI neurons ([7]; ASI-ablated hermaphrodites): no significant effect | attraction after ablation of ASK sensory neurons ([7]; ASK-ablated hermaphrodites): near complete loss of attraction | attraction of daf-22 hermaphrodites ([7]; daf-22 mutant): attracted; also recorded: as strongly as N2 worms | attraction of AIA-deficient worms ([7]; hyperactive MEC-4 in AIA interneuron): did not show any attraction | attraction of hermaphrodites ([7]; low concentrations, N2 hermaphrodites): strongly attractive to hermaphrodites | attraction of males ([7]; low concentrations, males): no longer attracted | attraction of npr-1(ad609) hermaphrodites ([7]; npr-1(ad609) mutant): strongly attracted | attraction of social wild-type hermaphrodites ([7]; strains RC301 and CB4856): strongly attracted | response after ablation of RMG interneuron ([7]; wild-type and ncs-1::gfp worms, RMG ablated): did not affect icas#3 response | chemotaxis of hermaphrodites from all tested strains ([8]; after 15 minutes, 10 nM of each ascr#2,3,5): attracted | chemotaxis of hermaphrodites from all tested strains ([8]; after 30 minutes, 10 nM ascr#2,3,5): attracted | response of daf-22 hermaphrodites ([8]; daf-22 mutant): as strongly as N2 worms | concentration as low as which resulted in strong attraction of hermaphrodites ([8]; in the presence and absence of food): 1 pM | chemotaxis of npr-1(ad609) hermaphrodites ([8]; npr-1(ad609) mutant): strongly attracted | chemotaxis of social wild-type hermaphrodites ([8]; strains RC301 and CB4856): strongly attracted | aggregation of CB4856 ([9]; 1 nM of icas#3): not significantly different from the control | aggregation of hermaphrodites lacking the ASK neurons ([9]; any of the tested concentrations): did not aggregate | aggregation of daf-22 hermaphrodites ([9]; compared with N2): less aggregation than N2 worms at 1 pM icas#3 but not at 10 pM icas#3 | aggregation of solitary and social hermaphrodites ([9]; constant background concentration): strongly increased the propensity | aggregation of npr-1(ad609) hermaphrodites ([9]; entire tested concentration range, no drop off): increased aggregation | aggregation of him-5 males ([9]; icas#3 plates): significantly increased | concentration window for hermaphrodite attraction and aggregation ([9]; in vivo): femtomolar to low picomolar | concentration as low as which gave a very strong increase in aggregation ([9]; low worm density, solitary and social hermaphrodites): 10 fM | worm velocity ([10]; 1-10 pM icas#3): not significantly reduced | mean stopped duration ([10]; aggregation-inducing concentrations, N2 hermaphrodites): strongly increase | reversal frequency and velocity of ASK-ablated hermaphrodites ([10]; icas#3 plates): neither increased reversal frequency nor decreased velocity | G-CaMP fluorescence in the AIA neurons [11]: significantly increased G-CaMP fluorescence | Attract Females/Herm. [3]: icas#3 ([strong]) | Attract Males [3]: icas#3 ([strong])
